Source: patent US20080207614A1, “QUINAZOLINE DERIVATIVES FOR THE TREATMENT AND PREVENTION OF DIABETES AND OBESITY” (SK CHEMICALS CO., LTD., priority 2004, published 2008)

Assays:
AMPK = experiment: Measurement of AMPK activity by Western blot in C2C12 cells; type: cell-based; set-up: key to AMPK activity (degree of phosphorylation of serine-79 and threonine-172): fold increase in threonine-172 phosphorylation; details: 10 μM for 50 minutes, no superscript: Western blot of serine-79 and threonine-172 phosphorylation
Method in brief: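 Differentiated C2C12 cells were exposed to test material at 10 μM for 50 minutes, then lysed. AMPK activity was taken from Western blots of Thr-172 phosphorylation and acetyl CoA carboxylase Ser-79 phosphorylation, with ERK as loading reference. Thr-172 rise was graded strong (≥3-fold), mild (1-3-fold) or weak (<1-fold).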

C2C12 muscle cells = experiment: Analysis of glucose absorption (2-deoxyglucose) in differentiated C2C12 muscle cells; type: cell-based; details: test materials 10 μM, times relative to control group
Method in brief: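 Differentiated C2C12 myotubes (6 days in 1% serum) held 3 h in KRB with 5 mM glucose, then given test material at 10 μM. After 30 min, 0.2 μCi 2-deoxyglucose added for 20 min; uptake measured by radioactive counting of NaOH lysates.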

Row | SMILES | AMPK activity (degree of phosphorylation of serine-79 and threonine-172) (AMPK) | Glucose absorption (C2C12 muscle cells)
1 | CCCc1nc(NCc2ccc(OC)cc2)c2ccccc2n1 [Compound 395, (4-Methoxybenzyl)-(2-propylquinazolino-4-yl)-amine] | 7.0 | 1.2
2 | CCCc1nc(NCc2ccc3c(c2)OCO3)c2ccccc2n1 [Compound 396, Benzo[1,3]dioxol-5-ylmethyl-(2-propylquinazolino-4-yl)-amine] | 7.3 | 1.3
3 | CCCc1nc(NCc2cccc(OC)c2OC)c2ccccc2n1 [Compound 397, (2,3-Dimethoxybenzyl)-(2-propylquinazolino-4-yl)-amine] | 6.5 | 1.3
4 | CCCc1nc(NCc2cc(OC)cc(OC)c2)c2ccccc2n1 [Compound 398, (3,5-Dimethoxybenzyl)-(2-propylquinazolino-4-yl)-amine] | 7.8 | 1.4
5 | CCCc1nc(NCc2ccc(OC)c(OC)c2)c2ccccc2n1 [Compound 399, (3,4-Dimethoxybenzyl)-(2-propylquinazolino-4-yl)-amine] | 4.9 | 1.2
6 | COc1ccccc1CNc1ncnc2ccccc12 [Compound 404, (2-Methoxybenzyl)-quinazolino-4-ylamine] | 1.9 | 2.1
7 | COc1cccc(CNc2ncnc3ccccc23)c1 [Compound 405, (3-Methoxybenzyl)-quinazolino-4-ylamine] | 2.7 | 2.2
8 | COc1ccc(CNc2ncnc3ccccc23)cc1 [Compound 406, (4-Methoxybenzyl)-quinazolino-4-ylamine] | 1.5 | 2.1
9 | c1ccc2c(NCc3ccc4c(c3)OCO4)ncnc2c1 [Compound 407, Benzo[1,3]dioxol-5-ylmethylquinazolino-4-ylamine] | 1.3 | 1.5
10 | COc1cccc(CNc2ncnc3ccccc23)c1OC [Compound 408, (2,3-Dimethoxybenzyl)-quinazolino-4-ylamine] | 3.5 | 1.6
11 | COc1cc(CNc2ncnc3ccccc23)cc(OC)c1 [Compound 409, (3,5-Dimethoxybenzyl)-quinazolino-4-ylamine] | 3.3 | 1.6
12 | COc1cc(CNc2ncnc3ccccc23)cc(OC)c1OC [Compound 411, Quinazolino-4-yl-(3,4,5-trimethoxybenzyl)-amine] | 1.8 | 1.2
13 | COc1ccc(CNc2ncnc3ccccc23)c(OC)c1 [Compound 412, (2,4-Dimethoxybenzyl)-quinazolino-4-ylamine] | 8.4 | 1.7
14 | COc1ccc(OC)c(CNc2ncnc3ccccc23)c1 [Compound 413, (2,5-Dimethoxybenzyl)-quinazolino-4-ylamine] | 1.7 | 1.2
15 | COc1cc(OC)c(CNc2ncnc3ccccc23)c(OC)c1 [Compound 414, Quinazolino-4-yl-(2,4,6-trimethoxybenzyl)-amine] | 2.9 | 1.5
